Test results as given in PubChem BioAssay AID330 (DTP/NCI, 2004).
Inconclusive results and toxic doses are left out.

System: P388 leukemia ip, CD2F1 mice, survival T/C
Experiment: NCI In Vivo Anticancer Drug Screen. Data for tumor model P388 Leukemia (intraperitoneal) in CD2F1 (CDF1) mice
Conditions: endpoint: median survival time, higher = longer survival
How it was run: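 Mice carrying the transplanted tumor received test compound or vehicle. Survival was recorded in each group, and the value is the treated-group measurement divided by that of the vehicle-treated control group.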

[1] = dose: 50.0 mg/kg/injection, schedule: Q01DX005 (ip), vehicle: Klucel (hydroxypropylcellulose) (HPC)
[2] = dose: 100.0 mg/kg/injection, schedule: Q01DX005 (ip), vehicle: Klucel (hydroxypropylcellulose) (HPC)

SMILES: CCOC(=O)C1(C(=O)OCC)C(C)CC(=O)N1c1ccccc1OC (stereo not drawn)
- T/C (dose: 60.0 mg/kg/injection, schedule: Q01DX005 (ip), vehicle: saline with Tween-80): 104 % of control
- T/C (dose: 120.0 mg/kg/injection, schedule: Q01DX005 (ip), vehicle: saline with Tween-80): 100 % of control
- T/C (dose: 240.0 mg/kg/injection, schedule: Q01DX005 (ip), vehicle: saline with Tween-80): 95 % of control

SMILES: NC1[N-]C(C2CCCC[N-]2)CC2CCCCC21.O=[N+]([O-])O.O=[N+]([O-])O.[Cu+2] (stereo not drawn)
- T/C (dose: 6.25 mg/kg/injection, schedule: Q04DX002 (ip), vehicle: suspension in saline): 103 % of control
- T/C (dose: 12.5 mg/kg/injection, schedule: Q04DX002 (ip), vehicle: suspension in saline): 111 % of control

SMILES: COc1ccc(N=C2C(=Nc3ccc(OC)cc3)N(c3ccc(OC)cc3)C(=S)N2C)cc1
- T/C (dose: 50.0 mg/kg/injection, schedule: Q01DX005 (ip), vehicle: Klucel + Tween-80): 106 % of control
- T/C (dose: 100.0 mg/kg/injection, schedule: Q01DX005 (ip), vehicle: Klucel + Tween-80): 93 % of control
- T/C (dose: 200.0 mg/kg/injection, schedule: Q01DX005 (ip), vehicle: Klucel + Tween-80): 106 % of control

SMILES: C/C(C=O)=C\c1ccc2c(c1)OCO2
- T/C [1]: 104 % of control
- T/C [2]: 97 % of control
- T/C (dose: 200.0 mg/kg/injection, schedule: Q01DX005 (ip), vehicle: Klucel (hydroxypropylcellulose) (HPC)): 106 % of control

SMILES: CCCCOC(C(=O)OCCN(CC)CC)(c1ccccc1)c1ccccc1
- T/C [1]: 108 % of control
- T/C [2]: 100 % of control
